Results taken from patent US20230365546A1, “5-SUBSTITUTED INDOLE 3-AMIDE DERIVATIVES, PREPARATION METHOD AND USE THEREOF” (ORIGIANT PHARMACEUTICAL CO., LTD, priority 2020, published 2023).

How the values were obtained:
RIPK1 = RIPK1 (Homo sapiens (Human), UniProt Q13546); assay: In vitro kinase assay (Eurofins Kinase Profiler), IC50; type: biochemical; details: 0.001-10 μM, read-out: RIPK 1 (IC50)
Description: In vitro kinase assays were conducted using Kinase Profiler services provided by Eurofins. The experimental method was as follows: the small molecule compound to be tested (0.001-10 μM), the protein kinase to be tested were incubated with a buffer containing substrate, 10 mM magnesium acetate, and [γ-^33P-ATP], the reaction was started by adding Mg\TPmix, after incubation for a period of time at room temperature, a 3% phosphate solution was added to the buffer to stop the reaction. Subsequently, 10 μL of the reaction mixture was quantitatively pipetted onto P30 filter paper, which was washed three times with 75 mM phosphate solution and then once with methanol. The P30 filter paper was air-dried and scintillation fluid was added for scintillation counting.

[1] = In vivo pharmacokinetic study in rats; details: rat, plasma, oral, 10 mg/kg
Description: Blood was collected from rats at different times after administration at the following time points: 0.083 h, 0.25 h, 0.5 h, 1 h, 2 h, 4 h, 8 h, and 24 h after intravenous administration; 0.25 h, 0.5 h, 1 h, 2 h, 4 h, 6 h, 8 h, and 24 h after oral administration. About 0.20 mL of blood was collected via jugular vein or other suitable means for each sample at the corresponding time, with heparin sodium for anticoagulation; the blood sample was placed on ice after collection and centrifuged within 1 h to separate the plasma (centrifugation conditions: centrifugal force 6800 g, 6 min, 2-8° C.). The collected plasma samples were stored in a refrigerator at −80° C. before analysis, and the remaining plasma samples continued to be temporarily stored in the refrigerator at −80° C. for one month after analysis.
Pharmacokinetic parameters such as AUC (0-t), T1/2, Cmax, Tmax, and MRT were calculated using WinNonlin based on plasma concentration data at different time points. The plasma drug concentration-time curve was plotted with BLQ recorded as 0. For the calculation of pharmacokinetic parameters, the concentration before administration was calculated as 0; BLQ before Cmax (including “No peak”) was calculated as 0; no BLQ (including “No peak”) appeared after Cmax participated in the calculation. The experiment was completed by Shanghai Medicilon Inc.

HT-29 cells = assay: Protection against programmed necrosis of HT-29 cells (TNF α/Smac mimetic/Z-VAD-FMK, CCK8); type: cell-based; details: Homo sapiens, TNF α/Smac mimetic/Z-VAD-FMK induced 24 h, CCK8, read-out: HT-29 (EC50)
DSS-induced colitis = assay: DSS-induced mouse IBD model; details: 40 mg/kg oral from day 7 after 2.5% DSS
Description: Female C57BL/6 mice weighing 17-20 g were used. […] Fresh DSS solution was changed on Days 2, 4, and 6, respectively. […] The Control group was given normal drinking water daily and corresponding vehicles orally starting on day 7. Body weights and survival rates of mice were recorded daily. Survival curves were fitted using Graphpad Prism 5.0 software. Mice (2/group) were sacrificed on day 12 and observed for changes in colon length.

RIPK1, sequence (Q13546 whole entry): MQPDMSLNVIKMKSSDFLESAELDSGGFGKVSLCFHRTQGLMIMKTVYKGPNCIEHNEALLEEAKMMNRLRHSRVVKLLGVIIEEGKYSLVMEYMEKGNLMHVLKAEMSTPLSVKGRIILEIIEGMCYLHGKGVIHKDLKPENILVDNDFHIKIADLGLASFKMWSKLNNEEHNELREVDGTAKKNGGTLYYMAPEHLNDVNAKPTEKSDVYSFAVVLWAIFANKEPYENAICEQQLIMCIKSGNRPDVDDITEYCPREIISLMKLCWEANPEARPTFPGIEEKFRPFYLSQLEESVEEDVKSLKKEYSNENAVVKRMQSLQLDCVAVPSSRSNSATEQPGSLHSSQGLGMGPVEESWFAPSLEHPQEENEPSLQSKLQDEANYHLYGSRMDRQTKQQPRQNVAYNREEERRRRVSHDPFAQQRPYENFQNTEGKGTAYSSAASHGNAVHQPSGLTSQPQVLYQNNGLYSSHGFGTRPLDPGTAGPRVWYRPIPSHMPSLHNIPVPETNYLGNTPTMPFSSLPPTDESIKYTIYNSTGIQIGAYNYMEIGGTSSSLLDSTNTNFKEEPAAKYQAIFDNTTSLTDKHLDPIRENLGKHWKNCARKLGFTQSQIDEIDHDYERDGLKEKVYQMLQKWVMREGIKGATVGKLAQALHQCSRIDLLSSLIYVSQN

Molecule | IC50 (RIPK1) [nM] | EC50 (HT-29 cells) [nM] | also measured
Cn1cc(C(=O)N2CCCC2c2cccc(F)c2)c2cc(-c3ccn4nc(NC(=O)C5CC5)nc4c3)ccc21 (stereo not drawn) [Compound 168] | 10 to 100 | < 1 | AUC(0-t) [1]: 15300 ng·h/mL; Cmax [1]: 6360 ng/mL; Tmax [1]: 0.33 h; bioavailability [1]: 60.9%; half-life [1]: 3.1 h
Cn1cc(C(=O)N2CCC[C@H]2c2ccc(F)cc2)c2cc(-c3ccn4nc(NC(=O)C5CC5)nc4c3)ccc21 [Compound 174] | 1 to 10 | < 1 | AUC(0-t) [1]: 11500 ng·h/mL; Cmax [1]: 3840 ng/mL; Tmax [1]: 0.42 h; bioavailability [1]: 35%; half-life [1]: 1.99 h
C[C@H](NC(=O)c1cn(C)c2ncc(-c3ccn4nc(NC(=O)C5CC5)nc4c3)cc12)c1cccc(F)c1 [Compound 186] | 100 to 1000 | 100 to 1000 | 
Cn1cc(C(=O)N2CCCC2c2cccc(F)c2)c2cc(-c3ccc4nc(NC(=O)C5CC5)cn4n3)ccc21 (stereo not drawn) [Compound 187] | < 1 | < 1 | 
Cn1cc(C(=O)N[C@H]2CCCc3ccccc32)c2cc(-c3ccc4nc(NC(=O)C5CC5)cn4n3)ccc21 [Compound 188] | 100 to 1000 | 100 to 1000 | 
Cc1cccc(C2CCCN2C(=O)c2cn(C)c3ccc(-c4ccn5nc(NC(=O)C6CC6)nc5c4)cc23)c1 (stereo not drawn) [Compound 189] | 100 to 1000 | 100 to 1000 | 
Cn1cc(C(=O)N2CCCC2c2cc(F)ccc2F)c2cc(-c3ccn4nc(NC(=O)C5CC5)nc4c3)ccc21 (stereo not drawn) [Compound 190] | 1 to 10 | 1 to 10 | 
Cn1cc(C(=O)N2CCC[C@H]2c2ccc(F)c(F)c2)c2cc(-c3ccn4nc(NC(=O)C5CC5)nc4c3)ccc21 [Compound 191] | < 1 | < 1 | AUC(0-t) [1]: 4560 ng·h/mL; Cmax [1]: 2130 ng/mL; Tmax [1]: 0.33 h; bioavailability [1]: 20.4%; half-life [1]: 4.67 h
Cn1cc(C(=O)N2CCC[C@H]2c2cc(F)cc(F)c2)c2cc(-c3ccn4nc(NC(=O)C5CC5)nc4c3)ccc21 [Compound 192] | < 1 | < 1 | 
Cn1cc(C(=O)N2CCC[C@H]2c2cccc(Cl)c2)c2cc(-c3ccn4nc(NC(=O)C5CC5)nc4c3)ccc21 [Compound 193] | 10 to 100 | 10 to 100 | AUC(0-t) [1]: 14800 ng·h/mL; Cmax [1]: 2880 ng/mL; Tmax [1]: 2.25 h; bioavailability [1]: 31.7%; half-life [1]: 2.74 h
Cn1cc(C(=O)N2CCC[C@H]2c2ccc(Cl)cc2)c2cc(-c3ccn4nc(NC(=O)C5CC5)nc4c3)ccc21 [Compound 194] | < 1 | < 1 | 
CNC(=O)Nc1nc2cc(-c3ccc4c(c3)c(C(=O)N[C@@H](C)c3cccc(F)c3)cn4C)ccn2n1 [Compound 195] | < 1 | < 1 | 
C[C@H](NC(=O)c1cn(C)c2ccc(-c3ccn4nc(N[C@@H](C)CO)nc4c3)cc12)c1cccc(F)c1 [Compound 196] | 10 to 100 | < 1 | 
CCn1cc(C(=O)N2CCC[C@H]2c2ccc(F)cc2)c2cc(-c3ccn4nc(NC(=O)C5CC5)nc4c3)cnc21 [Compound 197] | 1 to 10 | < 1 | 
CCn1cc(C(=O)N2CCC[C@H]2c2ccc(F)cc2)c2cc(-c3ccn4nc(NC(=O)[C@H](C)OC(C)=O)nc4c3)ccc21 [Compound 198] | 10 to 100 | 1 to 10 | 
CC[C@H](NC(=O)c1cn(CC)c2ccc(-c3ccn4nc(NC(=O)C5CC5)nc4c3)cc12)c1ccc(F)cc1 [Compound 199] | 1 to 10 | < 1 | 

Molecule | IC50 (RIPK1) [nM] | EC50 (HT-29 cells) [nM] | also measured
CCn1cc(C(=O)N[C@H](c2ccc(F)cc2)C2CC2)c2cc(-c3ccn4nc(NC(=O)C5CC5)nc4c3)ccc21 [Compound 200] | 10 to 100 | < 1 | 
CCn1cc(C(=O)N2CCC[C@H]2c2ccc(F)cc2)c2cc(-c3ccn4nc(NC(=O)CN(C)C)nc4c3)ccc21 [Compound 201] | 10 to 100 | 1 to 10 | 
Cn1cc(C(=O)N2C(CO)CC[C@H]2c2ccc(F)cc2)c2cc(-c3ccn4nc(NC(=O)C5CC5)nc4c3)ccc21 (stereo partly drawn) [Compound 202] | ≥ 1000 | 10 to 100 | 
Cn1cc(C(=O)N[C@@H](CO)c2ccc(F)cc2)c2cc(-c3ccn4nc(NC(=O)C5CC5)nc4c3)ccc21 [Compound 203] | 10 to 100 | < 1 | 
CCn1cc(C(=O)N2CCC[C@H]2c2ccc(F)cc2)c2cc(-c3ccn4nc(NC(=O)[C@@H](C)O)nc4c3)ccc21 [Compound 204] | 10 to 100 | < 1 | 
CCn1cc(C(=O)N2CCC[C@H]2c2ccc(F)cc2)c2cc(-c3ccn4nc(NC(=O)[C@H](C)O)nc4c3)ccc21 [Compound 205] | 10 to 100 | < 1 | 
[2H]C([2H])([2H])n1cc(C(=O)N[C@H](c2ccc(F)cc2)C2CC2)c2cc(-c3ccn4nc(NC(=O)C5CC5)nc4c3)ccc21 [Compound 206] | 1 to 10 | < 1 | 
[2H]C([2H])([2H])n1cc(C(=O)N[C@H](c2ccc(F)cc2)C2CC2)c2cc(-c3ccn4nc(NC(=O)CN(C)C)nc4c3)ccc21 [Compound 207] | 100 to 1000 | 1 to 10 | 
[2H]C([2H])([2H])n1cc(C(=O)N[C@@H](CC)c2ccc(F)cc2)c2cc(-c3ccn4nc(NC(=O)C5CC5)nc4c3)ccc21 [Compound 208] | 10 to 100 | < 1 | 
CCN(CC)CC(=O)Nc1nc2cc(-c3ccc4c(c3)c(C(=O)N3CCC[C@H]3c3ccc(F)cc3)cn4C)ccn2n1 [Compound 209] | 1 to 10 | < 1 | 
CCn1cc(C(=O)N[C@H](c2ccc(F)cc2)C2CC2)c2cc(-c3ccn4nc(NC(=O)CN(C)C)nc4c3)ccc21 [Compound 210] | 10 to 100 | < 1 | 
CC[C@H](NC(=O)c1cn(CC)c2ccc(-c3ccn4nc(NC(=O)CN(C)C)nc4c3)cc12)c1ccc(F)cc1 [Compound 211] | 1 to 10 | < 1 | 
CCn1cc(C(=O)N[C@@H](CF)c2ccc(F)cc2)c2cc(-c3ccn4nc(NC(=O)C5CC5)nc4c3)ccc21 [Compound 212] | 1 to 10 | < 1 | 
C[C@H]1CC[C@@H](c2ccc(F)cc2)N1C(=O)c1cn(C)c2ccc(-c3ccn4nc(NC(=O)C5CC5)nc4c3)cc12 [Compound 213] | 1 to 10 | < 1 | 
CCn1cc(C(=O)N[C@H](c2ccc(F)cc2)C2CC2)c2cc(-c3ccn4nc(NC5CC5)nc4c3)ccc21 [Compound 214] | ≥ 1000 | ≥ 1000 | 
GSK3145095 [reference compound] |  |  | Death of mice (DSS-induced colitis): occurrence of murine death; Body weight of mice (DSS-induced colitis; FIG. 6): continuous declination in body weight
